This test has as its system HEK293 cells comprising the pcDNA3-red-HCVIRES-gpt vector. Briefly: Growth of HEK293 cells with the IRES-gpt construct versus control cells in 6-thioxanthine (OD 590 nm). It is filed as cell-based. The conditions noted are these: 100 μM, up to 9 days, OD at days 2, 6 and 9, versus control cells. The method, then: FIG. 3 is a graphical representation showing the growth of HEK293 cells comprising a construct in which a gpt gene is placed under the control of a HCV IRES or control cells grown in the presence or absence of 6-thioxanthine (100 μM). The number of days of 6-thioxanthine treatment is indicated on the X-axis. The optical density at 590 nm of the tissue culture flask containing the cells is shown on the Y-axis. […] The OD590 of cells comprising the IRES-gpt construct grown in the absence of 6-thioxanthine are represented by solid squares and dashed line. The OD590 of cells comprising the IRES-gpt construct grown in the presence of 6-thioxanthine are represented by solid squares and solid line.
Cells were also screened to determine those capable of expressing gpt under the control of HCV IRES. Briefly, transfected cells or control cells were maintained either in the absence or presence of 6-thioxanthine (100 μM) for up to 9 days. To determine any change in cell number an optical density measurement was performed at 590 nm at days 2, 6 and 9 after the addition of 6-thioxanthine to the relevant cells.

With `O=c1[nH]c(=S)c2[nH]cnc2[nH]1` [6-thioxanthine], the “susceptibility of cells to 6-thioxanthine selection (optical density at 590 nm)” value was “considerably more susceptible”.

Source of the values: US20090247455A1, “Isolation of Inhibitors of IRES-Mediated Translation” (priority 2005, published 2009).
